Reference: patent EP0181129B1, “N6-substituted deoxyribose analogs of adenosines” (WARNER-LAMBERT COMPANY, priority 1984, dated 1986)
Where two headings read alike, the source gives them in different places.

Experiments:
adenosine A2 receptor = target: T1, adenosine A2 receptor (Rattus norvegicus, UniProt P30543); test: Adenosine Receptor Binding - A2 Receptor Affinity (RBA2), [3H]NECA displacement; conditions: 4 nM [3H]NECA with 50 nM N6-cyclopentyladenosine, rat striatal membranes, 60 minutes at 25°C; read-out: Receptor Binding RBA—2
T1 construct: Brains were thawed and then kept on ice while the striata were dissected out; tissue Pel-Freez (Rogers, Arkansas); host or cells: rat striatum, membranes
Experimental: Brains from 200-500 g mixed sex Sprague-Dawley rats were purchased from Pel-Freez (Rogers, Arkansas). Fresh brains from male Long-Evans hooded rats (Blue Spruce Farms, Altamont, NY) gave essentially indentical results. Brains were thawed and then kept on ice while the striata were dissected out. Striata were disrupted in 10 vol of ice-cold 50 mM Tris.HCI (pH 7.7 at 25°C, pH 8.26 at 5°C) (Tris) for 30 seconds in a Polytron PT―10 (Brinkmann) at setting 5. The suspension was centrifuged at 50,000 xg for ten minutes, the supernatant discarded, the pellet resuspended in 10 vol ice-cold Tris as above, recentrifuged, resuspended at 1 g/5 ml, and stored in plastic vials at -70°C (stable for at least six months). When needed, tissue was thawed at room temperature, disrupted in a Polytron, and kept on ice until used.
All incubations were for 60 minutes at 25°C in 12x75 mm glass tubes containing 1 ml Tris with 5 mg original tissue weight of rat weight of rat striatal membranes, 4 nM [^3H]-N-ethyl adenosine-5'-carboxamide ([^3H]NECA), 50 nM N^6-cyclopentyladenosine (to eliminate A1 receptor binding), 10 mM MgCl2, 0.1 units/ml, of adenosine deaminase and 1% dimethylsulfoxide. N^6-Cyclopentyladenosine was dissolved at 10 mM in 0.02 N HCI and diluted in Tris. Stock solutions and dilutions of N^6-cyclopentyladenosine could be stored at -20°C for several months. Test compounds were dissolved at 10 mM in dimethylsulfoxide or the same day as the experiment, and diluted in dimethylsulfoxide to 100x the final incubation concentration. Control incubations received an equal volume (10 µl) of dimethylsulfoxide; the resulting concentration of dimethylsulfoxide had no effect on binding. [^3H]NECA was diluted to 40 nM in Tris. The membrane suspension (5 mg/0.79 ml) contained sufficient MgCl2 and adenosine deaminase to give 10 mM and 0.1 units/ml, respectively, final concentration in the incubation. […] After all additions, the rack of tubes was vortexed, and the tubes were then incubated for 60 min at 25°C in a shaking water bath. The rack of tubes was vortexed an additonal time halfway through the incubation.
Incubations were terminated by filtration through 2.4 cm GF/B filters under reduced pressure. Each tube was filtered as follows: the contents of the tube were poured onto the filter, 4 ml of ice-cold Tris were added to the tube and the contents poured onto the filter, and the filter was washed twice with 4 ml of ice-cold Tris. The filtration was complete in about twelve seconds. Filters were put in scintillation vials, 8 ml of Formula 947 scintillation fluid added, and the vials left overnight, shaken, and counted in a liquid scintillation counter at 40% efficiency.
Nonspecific binding was defined as binding in the presence of […] N^6-cyclopentyladenosine, and specific binding was defined as total binding minus nonspecific binding. The IC50 was calculated by weighted nonlinear least squares curve-fitting to the mass-action equation. [formula] • where Y is cpm bound T is cpm total binding without drug S is cpm specific binding without drug D is the concentration of drug • and K is the IC50 of the drug Weighting factors were calculated under the assumption that the standard deviation was proportional to the predicted value of Y. Nonspecific binding was treated as a very large (infinite) concentration of drug in the computer analysis.

adenosine A1 receptor = target: T2, adenosine A1 receptor (Rattus norvegicus, UniProt P25099); test: Adenosine Receptor Binding - A1 Receptor Affinity (RBA1), [3H]-CHA displacement; conditions: rat whole brain membranes, one hour at 25°C
T2 construct: brain minus cerebellum and brainstem from male Long Evans rats (150-200 g) was homogenized; from tissue; host or cells: rat whole brain minus cerebellum and brainstem, membrane homogenate
T2 sequence (P25099 1-326): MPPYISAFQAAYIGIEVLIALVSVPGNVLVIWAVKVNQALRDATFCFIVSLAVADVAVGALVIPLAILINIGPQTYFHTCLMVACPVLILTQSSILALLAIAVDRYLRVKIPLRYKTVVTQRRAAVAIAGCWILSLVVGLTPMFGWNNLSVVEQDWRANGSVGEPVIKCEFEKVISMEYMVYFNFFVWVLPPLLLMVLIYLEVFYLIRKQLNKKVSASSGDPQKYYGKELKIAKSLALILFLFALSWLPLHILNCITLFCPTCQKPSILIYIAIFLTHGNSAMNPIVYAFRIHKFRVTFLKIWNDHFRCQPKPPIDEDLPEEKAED
Experimental: While brain minus cerebellum and brainstem from male Long Evans rats (150-200 g) was homogenized in 30 volumes of ice-cold 0.05 M Tris-CHI buffer pH 7.7 using a Brinkman Polytron PT-10, (setting number 6 for 20 seconds) and centrifuged for ten minutes at 20,000 x g (Sorvall RC-2), 4°C. The supernatant was discarded, and the pellet was resuspended and centrifuged as before. The pellet was resuspended in 20 ml Tris-HCI buffer containing two International Units/ml of adenosine deaminase (Sigma type III from calf intestinal mucosa), incubated at 37°C for 30 minutes, then subsequently at 0°C for ten minutes. The homogenate was again centrifuged, and the final pellet was resuspended in ice-cold 0.05 M Tris-HCI buffer pH 7.7 to a concentration of 20 mg/ml original wet tissue weight and used immediately.
Tissue homogenate (10 mg/ml) was incubated in 0.05 M Tris-HCI buffer pH 7.7 containing 1.0 nM (^3H]-N^e-cyclohexyladenosine ([^3H]-CHA) with or without tests agents in triplicate for one hour at 25°C. Incubation volume was 2 ml. Unbound [^3H]-CHA was separated by rapid filtration under reduced pressure through Whatman glass fiber (GF/B) filters. The filters were rinsed three times with 5 ml of ice cold 0.05 M Tris-HCI buffer pH 7.7. The radio-labeled ligand retained on the filter was measured by liquid scintillation spectrophotometry after shaking the filters for one hour or longer on a mechanical shaker in 10 ml of Beckman Ready-Solv HP scintillation cocktail.
Nonspecific binding was defined as the binding which occurred in the presence of 1 mM theophylline. […] The Scatchard plot was calculated by linear regression of the line obtained by plotting the amount of radioligand bound (pmoles/gram of tissue) [formula] Since the amount of radioligand bound was a small fraction of the total amount added, free radioligand was defined as the concentration (nM) of radioligand added to the incubation mixture. The Hill coefficient was calculated by linear regression of the line obtained by plotting the log of the bound radioligand vs the log of the [formula] The maximal number of binding sites (Bmax) was calculated from the Scatchard plot.

[1] = tested on: Long-Evans rats or squirrel-monkeys; test: Conditioned avoidance of electric footshock by lever pushing (SIDR); format: in vivo
Experimental: A representative compound of the invention (identified in the Example 5) was also tested for antipsychotic activity according to the following protocol (SIDR). The noted compound has the indicated EDso values (mg/kg) and is considered active as an antipsychotic agent in the test procedure.
Mature male Long-Evans rats or squirrel-monkeys are conditioned to push a lever in order to avoid a painful electric footshock. If the animal fails to push the lever, he receives a shock every ten seconds until the lever is pushed. Shocks can be terminated by pushing the lever. Thereafter, as long as the lever is pushed at least once every 20 seconds, there will be no shock.
Each animal acts as its own control; one weekly session is used to establish baseline behavior and another session later in the week is used as a drug session. Once patterns of avoidance are established, the effects of standard and unknown compounds are studied.

male Swiss-Webster mice = test: Antiwrithing (AW) test, acetic acid induced writhing; format: in vivo; conditions: Mus musculus, ip; administered intraperitoneally to mice; read-out: ED50 (dose necessary to suppress writhing by 50% relative to vehicle controls)
[2] = 1.0 nM [3H]-CHA, read-out: Receptor Binding RBA—1
[3] = Receptor Binding RBA—1, 1.0 nM [3H]-CHA

T1 sequence (P30543 whole entry): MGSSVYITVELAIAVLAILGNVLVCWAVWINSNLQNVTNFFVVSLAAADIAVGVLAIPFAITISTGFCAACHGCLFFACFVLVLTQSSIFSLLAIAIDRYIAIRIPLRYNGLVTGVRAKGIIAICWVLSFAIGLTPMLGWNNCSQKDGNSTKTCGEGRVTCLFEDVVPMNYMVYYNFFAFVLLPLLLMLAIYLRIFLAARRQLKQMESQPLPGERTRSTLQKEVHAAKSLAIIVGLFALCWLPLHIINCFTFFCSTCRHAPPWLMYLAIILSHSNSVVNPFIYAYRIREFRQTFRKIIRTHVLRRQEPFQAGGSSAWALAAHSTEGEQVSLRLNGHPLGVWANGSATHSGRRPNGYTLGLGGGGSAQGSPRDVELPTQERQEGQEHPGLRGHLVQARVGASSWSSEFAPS

| IC50 (adenosine A1 receptor; [2]) | SMILES | IC50 (adenosine A2 receptor) | ED50 ([1]; Rattus norvegicus, species of the result not stated (rats or squirrel-monkeys), read-out: ED50 for blockade of avoidance) | response for blockade of escape ([1]; at 4 mg/kg) | ED50 (male Swiss-Webster mice) | IC50 (adenosine A1 receptor; [3]) |
| --- | --- | --- | --- | --- | --- | --- |
| 1680 nM | C[C@H]1O[C@@H](n2cnc3c(NC4CCc5ccccc54)ncnc32)[C@H](O)[C@@H]1O (stereo partly shown) [Example 2, N^6-[1-Indanyl]-5'-deoxyadenosine] | 21200 nM | – | – | – | – |
| 52 nM | C[C@H]1O[C@@H](n2cnc3c(NC4CCCCC4)ncnc32)[C@H](O)[C@@H]1O [Example 6, N^6-[Cyclohexyl]-5'-deoxyadenosine] | 21400 nM | – | – | – | – |
| – | CSC[C@H]1O[C@@H](n2cnc3c(N[C@H](C)Cc4ccccc4)ncnc32)[C@H](O)[C@@H]1O [Example 7, (R)-N^6[Phenylisopropyl]-5'-deoxy-5'-thiomethyladenosine] | 6300 nM | – | – | – | 51 nM |
| – | CSC[C@H]1O[C@@H](n2cnc3c(N[C@@H](C)Cc4ccccc4)ncnc32)[C@H](O)[C@@H]1O [Example 8, (S)-N^6-[Phenylisopropyl]-5'-deoxy-5'-thiomethyladenosine] | 44000 nM | – | – | – | 700 nM |
| – | CSC[C@H]1O[C@@H](n2cnc3c(NC4CCCCC4)ncnc32)[C@H](O)[C@@H]1O [Example 9, N^6-[Cyclohexyl]-5'-deoxy-5'-thiomethyladenosine] | 7400 nM | – | – | – | 9 nM |
| 13 nM | CSC[C@H]1O[C@@H](n2cnc3c(NC4CCCC4)ncnc32)[C@H](O)[C@@H]1O [Example 10, N^6-[Cyclopentyl]-5'-deoxy-5'-thiomethyladenosine] | 7200 nM | – | – | – | – |
| – | CSC[C@H]1O[C@@H](n2cnc3c(NCC(c4ccccc4)c4ccccc4)ncnc32)[C@H](O)[C@@H]1O [Example 11, N^6-[2,2-Diphenyl]-5'-deoxy-5'-thiomethyladenosine] | 2000 nM | – | – | – | 660 nM |
| – | CSC[C@H]1O[C@@H](n2cnc3c(NC4CCc5ccccc54)ncnc32)[C@H](O)[C@@H]1O (stereo partly shown) [Example 12, N^6-[1-Indanyl]-5'-deoxy-5'-thiomethyladenosine] | 58200 nM | – | – | 3 mg/kg | 1490 nM |
| 53 nM | O[C@@H]1[C@H](O)[C@@H](CCl)O[C@H]1n1cnc2c(NCC(c3ccccc3)c3ccccc3)ncnc21 [Example 13, N^6-[2,2-Diphenylethyl]-5'-deoxy-5'-chloroadenosine] | 240 nM | – | – | – | – |
| 218 nM | O[C@@H]1[C@H](O)[C@@H](CCl)O[C@H]1n1cnc2c(NC3CCc4ccccc43)ncnc21 (stereo partly shown) [Example 14, N^6-[1-Indanyl]-5'-deoxy-5'-chloroadenosine] | 8650 nM | – | – | – | – |
| 2 nM | O[C@@H]1[C@H](O)[C@@H](CCl)O[C@H]1n1cnc2c(NC3CCCCC3)ncnc21 [Example 17, N^6-[Cyclohexyl]-5' -deoxy-5' -chloro-adenosine] | 2700 nM | – | – | – | – |
| 1.2 nM | O[C@@H]1[C@H](O)[C@@H](CCl)O[C@H]1n1cnc2c(NC3CCCC3)ncnc21 [Example 18, N^6-[Cyclopentyl]-5'-deoxy-5'-chloroadenosine] | 2800 nM | – | – | – | – |
| 607 nM | CC(=O)O[C@@H]1[C@H](OC(C)=O)[C@@H](C)O[C@H]1n1cnc2c(NC3CCCc4ccccc43)ncnc21 (stereo partly shown) [Example 22, N^6-1-Tetralinyl-2' ,3'-di-O-acetyl-5'-deoxyadenosine] | – | – | – | – | – |

| SMILES | IC50 (adenosine A1 receptor; [2]) | IC50 (adenosine A2 receptor) | ED50 ([1]; Rattus norvegicus, species of the result not stated (rats or squirrel-monkeys), read-out: ED50 for blockade of avoidance) | response for blockade of escape ([1]; at 4 mg/kg) | ED50 (male Swiss-Webster mice) | IC50 (adenosine A1 receptor; [3]) |
| --- | --- | --- | --- | --- | --- | --- |
| C[C@H]1O[C@@H](n2cnc3c(NCC(c4ccccc4)c4ccccc4)ncnc32)[C@H](O)[C@@H]1O [Example 1, N^s-[2,2-Diphenylethyl]-5'-deoxyadenosine] | 227 nM | 1110 nM | – | – | – | – |
| C[C@H](Cc1ccccc1)Nc1ncnc2c1ncn2[C@@H]1O[C@H](C)[C@@H](O)[C@H]1O [Example 3] | 40 nM | 5700 nM | – | – | – | – |
| C[C@@H](Cc1ccccc1)Nc1ncnc2c1ncn2[C@@H]1O[C@H](C)[C@@H](O)[C@H]1O [Example 4, (S)-N^6-[Phenylisopropyl]-5'-deoxyadenosine] | 556 nM | 20000 nM | – | – | – | – |
| C[C@H]1O[C@@H](n2cnc3c(NC4CCCC4)ncnc32)[C@H](O)[C@@H]1O [Example 5, N^6-[Cyclopentyl]-5'-deoxyadenosine] | 16 nM | 17200 nM | 2.8 mg/kg | 10% | 0.9 mg/kg | – |
| C[C@H](Cc1ccccc1)Nc1ncnc2c1ncn2[C@@H]1O[C@H](CCl)[C@@H](O)[C@H]1O [Example 15, (R)-N^6-[Phenylisopropyl]-5'-deoxy-5'-chloro-adenosine] | 3 nM | 1600 nM | – | – | 1.8 mg/kg | – |
| C[C@@H](Cc1ccccc1)Nc1ncnc2c1ncn2[C@@H]1O[C@H](CCl)[C@@H](O)[C@H]1O [Example 16, (S)-N^6-[Phenylisopropyl]-5'-deoxy-5'-chloroadenosine] | 35 nM | 7900 nM | – | – | – | – |
| CC(=O)O[C@@H]1[C@H](OC(C)=O)[C@@H](C)O[C@H]1n1cnc2c(NCc3cccc4ccccc34)ncnc21 [Example 21, N^6-a-Naphthylmethyl-2',3'-di-O-acetyl-5'-deoxyadenosine] | 2520 nM | – | – | – | – | – |
